In patent US20210252015A1, “CERTAIN (2S)-N-[(1S)-1-CYANO-2-PHENYLETHYL]-1,4-OXAZEPANE-2-CARBOXAMIDES FOR TREATING INFLAMMATORY BOWEL DISEASE” (Insmed Incorporated, priority 2018, published 2021):

Key:
[1] = tested on: DSS-induced colitis in C57BL/6 mice; test: DSS-induced colitis murine study, Example 1B (endoscopy, stool consistency, body weight); format: in vivo
Description: (§1) Mice: Ninety-five (95) male C57BL/6 mice with an average starting body weight (SEM) of 20.6 g (+0.16 g) were obtained from Charles River Laboratories (Wilmington, Mass.). Animals were acclimatized prior to the study. During this period, the animals were observed daily in order to reject any that presented in poor condition. Animals were fed with 5053 sterile rodent diet and water was provided ad libitum.
Solutions: The INS1007 Solution, Anti-p40 mAb solution and DSS Induction Solution were prepared and stored as described in Example 1A. […]
All animals were weighed daily and assessed visually for the presence of diarrhea and/or bloody stool at the time of dosing. […] Colitis severity was scored using the scale described in Example 1A. Stool consistency was scored during endoscopy using the parameters defined in Table 2. […]
Animals underwent endoscopy on Days 10 and 14, in order to assess colonic inflammation. Colitis was scored visually on a five-point scale using the method described in Example 1A. Stool consistency was scored visually on a five-point scale using the method described in Example 1A. […]
To determine the statistical significance of overall differences in mean percent body weight change between groups, the area under the curve (AUC) was calculated using the trapezoidal rule transformation and is shown in the FIG. 9.

[2] = tested on: DSS-induced colitis in C57BL/6 mice; test: DSS-induced colitis murine study, Example 1A (endoscopy, stool consistency, body weight); format: in vivo; details: for mean endoscopy score: INS1007 1 mg/kg PO BID Day -7 to 20, scale 0-4
Method: as §1, with “Seventy-nine (79)” for “Ninety-five (95)”, “23.32” for “20.6”, “(+1.53” for “(+0.16”
INS1007 Solutions: INS1007 was diluted with 0.5% hydroxypropylmethylcellulose in citrate buffer w/0.1% Tween 80 (pH 3.0). Solutions were stored at 4° C. INS1007 solutions were discarded after 3 days and fresh solutions were prepared.
Anti-p40 mAb solution: Anti-mouse IL-12 p40 (Clone: C17.8) obtained from BioXCell (Cat #: BE0051) was diluted with phosphate buffered saline. Solutions were stored at 4° C. Anti-mouse IL-12 p40 solutions were discarded after 7 days and fresh solutions were prepared.
DSS Induction Solution: Dextran sulfate sodium salt obtained from MP Biomedical (Cat #02160110) was diluted with water. DSS solutions were stored at room temperature.
Groups 1-4 were negative controls; groups 5-7 were treated with INS 1007 and Group 8 was treated with Anti-p40 mAb. ^i The dosing protocol for the Anti-p40 antibody is not shown in FIG. 1.
The study included three phases: a pre-treatment period (Veh/1007 Pretx in FIG. 1); DSS-induction period (DSS in FIG. 1) and a treatment period (Veh/1007 in FIG. 1). Colitis was induced in Groups 3-8 by exposure to 3% DSS Induction Solution from Day 0 to Day 5. Animals in Groups 2 and 4-7 were dosed via oral gavage (PO) twice daily (BID) from Days −7 to 20 with INS1007 Solution or vehicle, as indicated in Table 1. Animals in Group 8 were dosed via intraperitoneal (IP) injection once every third day (Q3D) from Day 0 to 18 with Anti-p40 mAb solution.
All animals were weighed daily and assessed visually for the presence of diarrhea and/or bloody stool at the time of dosing. Each mouse, under isoflurane anesthesia, underwent video endoscopy on Days 10, 14, & 21 using a small animal endoscope (Karl Storz Endoskope, Germany), to assess colitis severity. Colitis severity was scored using a 0-4 scale (0=normal; 1=loss of vascularity; 2=loss of vascularity and friability; 3=friability and erosions; 4=ulcerations and bleeding). Stool consistency was scored during endoscopy using the parameters defined in Table 2. Following endoscopy on day 21, all animals from each treatment group were sacrificed.

For Cn1c(=O)oc2ccc(-c3ccc(C[C@@H](C#N)NC(=O)[C@@H]4CNCCCO4)cc3)cc21 [INS1007, (2S)—N-{(1S)-1-cyano-2-[4-(3-methyl-2-oxo-2,3-dihydro-1,3-benzoxazol-5-yl)phenyl]ethyl}-1,4-oxazepane-2-carboxamide], which mean endoscopy score ([1]; Day 14, INS1007 0.3 mg/kg PO BID (Group 3), vs vehicle control (Group 2)) is on record?
The mean endoscopy score was “reduced”.

What about the “body weight loss (AUC, calculated based on Day -7)” value ([1]; INS1007 1 mg/kg PO BID (Group 4), vs Group 2 (3% DSS+vehicle)) of the same molecule?
The value was “significantly decreased”.

What about the mean endoscopy score ([2]; Day 10, DSS-Vehicle control 2.67) of the same molecule?
Its mean endoscopy score is 2.25.

What about the mean endoscopy score ([2]; Day 14, DSS-Vehicle control 2.79) of the same molecule?
Its mean endoscopy score is 1.92.

What about the mean endoscopy score ([2]; Day 21, DSS-Vehicle control 2.36) of the same molecule?
The mean endoscopy score was 2.08.

What about the “weight loss (percentage of starting weight on Day 0)” value ([2]; INS1007 PO BID, vs DSS-vehicle control (peak loss -18.46% Day 11)) of the same molecule?
Its value is “modestly attenuated weight loss”.

What about the stool consistency scores ([2]; INS1007 at all three concentrations (0.1, 1, 10 mg/kg PO BID), Days 10, 14, 21, particularly Days 14 and 21) of the same molecule?
Its stool consistency scores is “modest decreases in stool scores”.
